The assay concerns the target Enzyme I (EI, PtsI) (Escherichia coli, UniProt P08839). Nature of the assay: […] pyruvate/PEP isotope exchange assay with LC-MS/MS on purified enzyme. The class given is biochemical.

Ki data for one compound are collected here from article PMC3218208 (Nature chemical biology, 2011).

`O=C(O)CCC(=O)C(=O)O` [αKG, α-ketoglutarate] returned a Ki of 1.3 ± 0.1 mM.

One may read the Ki as the equilibrium dissociation constant of an inhibitor or competing ligand from its target. Higher therefore signals lower affinity.
